Legend:
Type in all cases: cell-based
[1] = target: T1, CSF1R (colony-stimulating factor 1 receptor) (Mus musculus, UniProt P09581); assay: Western blot of CSF1R signaling in RAW264 cells with and without drug removal (reference CSF1R inhibitor)
T1 sequence (P09581 20-977): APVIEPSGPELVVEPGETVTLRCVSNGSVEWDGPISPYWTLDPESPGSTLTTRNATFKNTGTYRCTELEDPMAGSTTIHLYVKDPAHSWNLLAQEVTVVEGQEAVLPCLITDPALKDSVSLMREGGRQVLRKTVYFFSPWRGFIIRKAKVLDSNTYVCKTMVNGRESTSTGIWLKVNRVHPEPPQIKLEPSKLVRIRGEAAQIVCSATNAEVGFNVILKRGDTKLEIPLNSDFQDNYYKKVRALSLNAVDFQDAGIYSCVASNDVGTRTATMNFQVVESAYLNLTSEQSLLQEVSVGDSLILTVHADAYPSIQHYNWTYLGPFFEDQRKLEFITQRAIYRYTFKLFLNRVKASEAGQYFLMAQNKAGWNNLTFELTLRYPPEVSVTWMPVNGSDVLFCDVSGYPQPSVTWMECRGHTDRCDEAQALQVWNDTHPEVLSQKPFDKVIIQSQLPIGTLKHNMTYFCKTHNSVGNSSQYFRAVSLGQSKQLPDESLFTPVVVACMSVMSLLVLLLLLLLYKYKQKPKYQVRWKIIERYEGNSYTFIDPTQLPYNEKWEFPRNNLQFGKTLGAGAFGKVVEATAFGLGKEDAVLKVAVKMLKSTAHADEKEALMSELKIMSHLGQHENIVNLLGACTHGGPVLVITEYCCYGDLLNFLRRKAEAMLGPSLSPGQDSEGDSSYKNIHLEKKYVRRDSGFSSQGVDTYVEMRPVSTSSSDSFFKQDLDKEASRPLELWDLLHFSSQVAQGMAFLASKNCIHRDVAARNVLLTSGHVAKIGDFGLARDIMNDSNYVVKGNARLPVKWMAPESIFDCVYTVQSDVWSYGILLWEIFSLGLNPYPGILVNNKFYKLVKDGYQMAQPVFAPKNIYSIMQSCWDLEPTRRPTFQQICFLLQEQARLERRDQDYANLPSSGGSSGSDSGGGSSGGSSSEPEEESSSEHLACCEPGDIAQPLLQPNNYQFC

[2] = target: T1, CSF1R (colony-stimulating factor 1 receptor); assay: Western blot of M-CSF-induced CSF1R phosphorylation in murine BMDMs and RAW264 cells; inhibition persists after drug washout
[3] = target: CSF1R (colony-stimulating factor 1 receptor) (Homo sapiens, UniProt P07333); assay: Western blot of M-CSF-induced CSF1R phosphorylation in human monocyte-derived macrophages
Sequence of CSF1R (colony-stimulating factor 1 receptor) (Homo sapiens, UniProt P07333) (P07333 20-972): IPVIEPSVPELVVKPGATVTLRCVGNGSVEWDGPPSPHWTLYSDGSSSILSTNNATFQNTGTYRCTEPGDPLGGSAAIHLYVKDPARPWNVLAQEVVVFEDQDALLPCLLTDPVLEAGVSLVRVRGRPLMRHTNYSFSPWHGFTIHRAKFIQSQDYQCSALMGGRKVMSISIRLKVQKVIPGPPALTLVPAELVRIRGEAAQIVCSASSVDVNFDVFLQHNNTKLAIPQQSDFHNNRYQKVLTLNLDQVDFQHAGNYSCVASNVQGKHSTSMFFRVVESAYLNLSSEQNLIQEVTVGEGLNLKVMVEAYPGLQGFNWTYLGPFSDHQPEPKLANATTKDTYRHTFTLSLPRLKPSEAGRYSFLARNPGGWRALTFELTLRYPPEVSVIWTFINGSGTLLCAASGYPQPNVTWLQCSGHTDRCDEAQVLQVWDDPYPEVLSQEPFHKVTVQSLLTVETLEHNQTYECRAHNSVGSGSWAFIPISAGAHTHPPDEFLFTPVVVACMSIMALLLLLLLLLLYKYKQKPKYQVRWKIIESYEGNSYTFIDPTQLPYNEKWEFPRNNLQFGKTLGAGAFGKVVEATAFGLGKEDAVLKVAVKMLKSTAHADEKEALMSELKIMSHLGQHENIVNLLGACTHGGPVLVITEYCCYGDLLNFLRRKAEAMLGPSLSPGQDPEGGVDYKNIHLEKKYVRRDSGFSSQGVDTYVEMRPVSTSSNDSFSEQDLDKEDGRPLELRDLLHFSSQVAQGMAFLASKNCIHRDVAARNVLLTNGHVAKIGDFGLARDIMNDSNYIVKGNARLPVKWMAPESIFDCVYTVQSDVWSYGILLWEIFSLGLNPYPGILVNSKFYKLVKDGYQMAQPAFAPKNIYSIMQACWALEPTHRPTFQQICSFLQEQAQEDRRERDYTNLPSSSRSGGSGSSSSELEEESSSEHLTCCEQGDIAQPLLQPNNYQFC

Compound | Western blot of CSF1R signaling in RAW264 cells with and without drug removal (r) [1] | Western blot of M-CSF-induced CSF1R phosphorylation in murine BMDMs and RAW264 c [2] | Western blot of M-CSF-induced CSF1R phosphorylation in human monocyte-derived ma [3]
CNC(=O)c1cc(Oc2ccc3nc(N[C@@H]4CCCC[C@H]4O)sc3c2)ccn1 [BLZ945] | the inhibitory activity of BLZ945, another CSF1R inhibitor with an IC50 comparable to that of FF-10101, decreased upon drug removal | – | –
CCCNc1nc(Nc2ccc(C#N)cc2)ncc1C#CCCCNC(=O)[C@H](C)N(C)C(=O)/C=C/CN(C)C [FF-10101] | – | upon reexposure to M-CSF was markedly inhibited by FF-10101 in a dose-dependent manner | human monocyte-derived macrophages upon reexposure to M-CSF was markedly inhibited by FF-10101 in a dose-dependent manner

From article PMC11721313, “Sustained inhibition of CSF1R signaling augments antitumor immunity through inhibiting tumor-associated macrophages” (JCI Insight, 2025)
